Laboratory results taken from US10265310B2, “6-membered cyclic amines or lactames substituted with urea and phenyl” (GRÜNENTHAL GMBH, priority 2016, dated 2019).

Tests used:
FPR2 = FPR2 (Homo sapiens (Human), UniProt P25090); assay: Agonistic activity (calcium FLIPR) in hFPR2-Aq-CHO cells; format: cell-based; conditions: FLIPR Calcium 5 dye fluorescence, agonistic response
Experimental: (§1) Cells (hFPR1-Gα15-CHO or hFPR2-Aq-CHO) are suspended in 10 mL of respective complete medium (F12(1×) HAM media; 10% HI-FBS; 0.1 mg/ml Hygromycin B and 0.2 mg/ml Zeocin [for hFPR1 only]; 0.4 mg/mL Geneticin and 0.25 mg/ml Zeocin [for hFPR2-Aq only]) and viability is checked using Trypan Blue exclusion. After washing, the cells are plated at 10,000 cells per well in 40 μL complete medium in a 384-well sterile clear bottom black plate and incubated in a 5% CO2 incubator at 37° C. for 18 hours. Plating media is removed from each well by decanting and gentle tapping before 30 μL of 0.5× Calcium 5 dye solution (0.5×FLIPR Calcium 5 dye (Molecular devices, R8186)); HBSS; 20 mM HEPES; 2.5 mM Probenecid; 0.025% Pluronic F-127; pH adjusted to 7.4) is added to each well and the plate is then incubated at 37° C. for 30 minutes. For the assay the plate is equilibrated at room temperature for 10 minutes before placing it in the FLIPR. Compounds are dissolved in DMSO and serially diluted over an 11 point half log (3.16 fold) dilution (2 mM to 20 nM). Compounds are then diluted 1:50 in assay buffer (HBSS; 20 mM HEPES; 2.5 mM Probenecid; 0.05% gelatin; 0.1% BSA; pH adjusted to 7.4) just before performing the assay. Compounds are finally added to the respective wells of the cell plate (final assay concentration 10 μM to 100 pM) using the FLIPR (e.g. FLIPR-Tetra, Molecular Devices) and fluorescence readings are captured for 5 minutes. The increase in fluorescence from the basal reading in the presence of the compounds is compared with that of the control wells (wells having no compound) to calculate the activity of the compounds. The EC50 values of the compounds can be determined using e.g. Graph pad Prism software.
(§2) Assay Method for Measuring Agonistic Activity of Compounds in hFPR1-Gα15-CHO and hFPR2-Aq-CHO Cell
(§3) Cryo-vial containing 6×10^6 cells (hFPR1-Gα15-CHO or hFPR2-Aq-CHO) was thawed in a 37° C. water bath. Cells were suspended in 10 ml of respective complete growth media (F12(1×) HAM media (Gibco; Cat#11765); 10% HI-FBS (Gibco; Cat#10082); 0.1 mg/ml Hygromycin B (Invitrogen; Cat#10687-010) [for hFPR1 only]; 0.2 mg/ml Zeocin (Invitrogen; Cat#R25001) [for hFPR1 only]; 0.4 mg/ml Geneticin (Gibco; Cat#10131) [for hFPR2-Aq only]; 0.25 mg/ml Zeocin (Invitrogen; Cat#R25001) [for hFPR2-Aq only]) in a 15 ml centrifuge tube. The cell viability was checked with the help of Trypan Blue dye. Upon washing the cells, those were plated in a 384-well sterile clear bottom black plate (Greiner Bioone Cat#781091) so that, each well contained 10,000 cells in 40 μl complete growth media. The plate was incubated in a 5% CO2 incubator at 37° C. for 18 hours.
(§4) Before assay on the next day, the cell plating media was removed from each well of the plate by decanting and gentle tapping. 30 μl, 0.11 of 0.5× Calcium 5 dye solution (0.5×FLIPR Calcium 5 dye (Molecular devices Cat# R8186); HBSS (Invitrogen; Cat#14025); 20 mM HEPES (Sigma; Cat#H0887); 2.5 mM Probenecid (Sigma; Cat#P8761); 0.025% Pluronic F-127 (Sigma; Cat#P2443); pH adjusted to 7.4) was added to each well. The plate was then incubated at 37° C. for 30 minutes. Following which the plate was equilibrated at room temperature for 10 minutes before placing it in a 384 well FLIPR for assay. Compounds were dissolved in DMSO and serially diluted following 11 point half log (3.16 fold) dilution with a starting concentration of 2 mM (Final assay concentration 10 μM). Aliquots of above mentioned each dilution was mixed with assay buffer (HBSS (Invitrogen; Cat#14025); 20 mM HEPES (Sigma; Cat#H0887); 2.5 mM Probenecid (Sigma; Cat#P8761); 0.05% gelatin (Sigma; Cat#G1890); 0.1% BSA (Sigma; Cat#A3059); pH adjusted to 7.4) just before performing the assay. Compounds were added to the respective wells of the assay ready cell plate with the help of the FLIPR (FLIPR Tetra) and fluorescence readings were captured for 5 minutes to measure any agonistic response of the compounds. […]

FPR1 = FPR1 (Homo sapiens (Human), UniProt P21462); assay: Agonistic activity (calcium FLIPR) in hFPR1-Gα15-CHO cells; format: cell-based; conditions: FLIPR Calcium 5 dye fluorescence, agonistic response
Sequence of FPR1 (P21462 whole entry): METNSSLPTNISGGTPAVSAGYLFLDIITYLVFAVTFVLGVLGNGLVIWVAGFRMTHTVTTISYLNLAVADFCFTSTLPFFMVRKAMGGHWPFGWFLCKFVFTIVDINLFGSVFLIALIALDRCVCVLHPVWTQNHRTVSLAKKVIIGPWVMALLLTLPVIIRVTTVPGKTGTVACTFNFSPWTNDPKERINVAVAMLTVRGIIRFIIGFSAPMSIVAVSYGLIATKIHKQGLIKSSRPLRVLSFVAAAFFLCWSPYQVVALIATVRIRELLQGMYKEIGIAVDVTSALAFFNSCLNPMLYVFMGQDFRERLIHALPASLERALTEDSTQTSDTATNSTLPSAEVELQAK
Experimental: as §1, §2, §3, §4

Sequence of FPR2 (P25090 whole entry): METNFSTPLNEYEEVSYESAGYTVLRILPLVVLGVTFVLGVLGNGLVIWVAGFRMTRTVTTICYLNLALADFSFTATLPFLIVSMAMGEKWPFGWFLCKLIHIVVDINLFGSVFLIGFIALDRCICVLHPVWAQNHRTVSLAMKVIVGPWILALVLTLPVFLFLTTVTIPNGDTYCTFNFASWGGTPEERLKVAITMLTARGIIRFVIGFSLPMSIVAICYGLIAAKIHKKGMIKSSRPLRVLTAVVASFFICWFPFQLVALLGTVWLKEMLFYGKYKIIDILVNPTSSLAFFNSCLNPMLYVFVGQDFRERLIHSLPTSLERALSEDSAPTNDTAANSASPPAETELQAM

SMILES	EC50 (FPR2) [nM]	EC50 (FPR1) [nM]
COc1cc(F)c([C@@H]2CC(=O)NC[C@H]2NC(=O)Nc2ccc(Cl)cc2)c(F)c1 (racemic) [Example 23, rac-trans-1-(4-chlorophenyl)-3-(4-(2,6-difluoro-4-methoxyphenyl)-6-oxopiperidin-3-yl)urea]	< 1	1 to 1000
COCCN1CC(NC(=O)Nc2ccc(Cl)cc2)C(c2ccc(F)cc2F)CC1=O (single isomer, unassigned; ent2) [Example 64, trans-ent2-1-(4-Chlorophenyl)-3-[4-(2,4-difluoro-phenyl)-1-(2-methoxy-ethyl)-6-oxo-piperidin-3-yl]-urea]	1 to 1000	1 to 1000
COc1ccc(C2CC(=O)NCC2NC(=O)Nc2ccc(Cl)cc2)c(F)c1 (single isomer, unassigned; ent1) [Example 42, trans-ent1-1-(4-chlorophenyl)-3-(4-(2-fluoro-4-methoxyphenyl)-6-oxopiperidin-3-yl)urea]	< 1	1 to 1000
COc1cc(F)c([C@@H]2CC(=O)N(CC3CC3)C[C@H]2NC(=O)Nc2ccc(Cl)cc2)c(F)c1 (racemic) [Example 29, rac-trans-1-(4-chlorophenyl)-3-(1-(cyclopropylmethyl)-4-(2,6-difluoro-4-methoxyphenyl)-6-oxopiperidin-3-yl)urea]	< 1	1 to 1000
O=C1C[C@@H](c2c(F)cc(OC(F)F)cc2F)[C@H](NC(=O)Nc2ccc(Cl)cc2)CN1 (racemic) [Example 70, rac-trans-1-(4-chlorophenyl)-3-(4-(4-(difluoromethoxy)-2,6-difluorophenyl)-6-oxopiperidin-3-yl)urea]	1 to 1000	1 to 1000
O=C(Nc1ccc(Cl)cc1)NC1CN(C(=O)C2CC2)CCC1c1ccccc1 (single isomer, unassigned; ent1) [Example 83, trans-ent1-1-(4-chlorophenyl)-3-(1-(cyclopropanecarbonyl)-4-phenylpiperidin-3-yl)urea]	1 to 1000	1 to 1000
COc1cc(F)c(C2CCNCC2NC(=O)Nc2ccc(Cl)cc2)c(F)c1 (single isomer, unassigned; ent2) [Example 37, trans-ent2-1-(4-chlorophenyl)-3-(4-(2,6-difluoro-4-methoxyphenyl)piperidin-3-yl)urea]	1 to 1000	1 to 1000
COc1cc(F)c(C2CCNCC2NC(=O)Nc2ccc(Cl)cc2)c(F)c1 (single isomer, unassigned; ent1) [Example 36, trans-ent1-1-(4-chlorophenyl)-3-(4-(2,6-difluoro-4-methoxyphenyl)piperidin-3-yl)urea]	< 1	1 to 1000
COc1cc(F)c(C2CC(=O)NCC2NC(=O)Nc2ccc(Cl)cc2)c(F)c1 (single isomer, unassigned; ent2) [Example 50, trans-ent2-1-(4-chlorophenyl)-3-(4-(2,6-difluoro-4-methoxyphenyl)-6-oxopiperidin-3-yl)urea]	< 1	1 to 1000
COc1cc(F)c([C@@H]2CC(=O)NC[C@H]2NC(=O)Nc2cc3ccccc3s2)c(F)c1 (racemic) [Example 53, rac-trans-1-(Benzo[b]thiophen-2-yl)-3-[4-(2,6-difluoro-4-methoxy-phenyl)-6-oxo-piperidin-3-yl]-urea]	1 to 1000	1 to 1000
COc1cc(F)c([C@@H]2CC(=O)NC[C@H]2NC(=O)Nc2ccc(Cl)c(O)c2)c(F)c1 (racemic) [Example 57, rac-trans-1-(4-Chloro-3-hydroxy-phenyl)-3-[4-(2,6-difluoro-4-methoxy-phenyl)-6-oxo-piperidin-3-yl]-urea]	< 1	1 to 1000
COc1cc(F)c([C@@H]2CC(=O)NC[C@H]2NC(=O)Nc2csc(Cl)c2)c(F)c1 (racemic) [Example 52, rac-trans-1-(5-Chloro-thiophen-3-yl)-3-[4-(2,6-difluoro-4-methoxy-phenyl)-6-oxo-piperidin-3-yl]-urea]	< 1	1 to 1000

Second part, the compound after the results:

EC50 (FPR2) [nM]	EC50 (FPR1) [nM]	SMILES
< 1	< 1	COc1ccc([C@@H]2CCN(C(=O)C(C)C)C[C@H]2NC(=O)Nc2ccc(Cl)cc2)cc1 (racemic) [Example 17, rac-trans-1-(4-chlorophenyl)-3-(1-isobutyryl-4-(4-methoxyphenyl)piperidin-3-yl)urea]
1 to 1000	1 to 1000	COc1ccc(C2CCN(C(C)=O)C[C@H]2NC(=O)Nc2ccc(C)nc2)cc1 (mixture of isomers) [Example 28, rac-trans-1-(1-acetyl-4-(4-methoxyphenyl)piperidin-3-yl)-3-(6-methylpyridin-3-yl)urea]
< 1	< 1	COCCC(=O)N1CC[C@@H](c2ccc(OC)cc2)[C@H](NC(=O)Nc2ccc(Cl)cc2)C1 (racemic) [Example 15, rac-trans-1-(4-chlorophenyl)-3-(4-(4-methoxyphenyl)-1-(3-methoxypropanoyl)piperidin-3-yl)urea]
< 1	1 to 1000	COc1ccc([C@@H]2CC(=O)N(CCO)C[C@H]2NC(=O)Nc2ccc(Cl)cc2)cc1 (racemic) [Example 32, rac-trans-1-(4-chlorophenyl)-3-(1-(2-hydroxyethyl)-4-(4-methoxyphenyl)-6-oxopiperidin-3-yl)urea]
1 to 1000	1 to 1000	COc1ccc(C2C(NC(=O)Nc3ccc(Cl)cc3)CCCN2C)cc1 (single isomer, unassigned; dia1) [Example 89, dia1-1-(4-chlorophenyl)-3-(2-(4-methoxyphenyl)-1-methylpiperidin-3-yl)urea]
1 to 1000	1 to 1000	O=C(Nc1ccc(Cl)cc1)NC1CN(C(=O)C2CC2)CCC1c1ccccc1 (single isomer, unassigned; ent2) [Example 84, trans-ent2-1-(4-chlorophenyl)-3-(1-(cyclopropanecarbonyl)-4-phenylpiperidin-3-yl)urea]
< 1	1 to 1000	COc1cc(F)c([C@@H]2CCN(C(C)=O)C[C@H]2NC(=O)Nc2ccc(Cl)cc2)c(F)c1 (racemic) [Example 5, rac-trans-1-(1-acetyl-4-(2,6-difluoro-4-methoxyphenyl)piperidin-3-yl)-3-(4-chlorophenyl)urea]
1 to 1000	1 to 1000	COc1ccc(C2C(NC(=O)Nc3ccc(Cl)cc3)CCCN2C)cc1 (single isomer, unassigned; dia2) [Example 90, dia2-1-(4-chlorophenyl)-3-(2-(4-methoxyphenyl)-1-methylpiperidin-3-yl)urea]
< 1	1 to 1000	COc1ccc([C@@H]2CC(=O)N(CC3CC3)C[C@H]2NC(=O)Nc2ccc(Cl)cc2)cc1 (racemic) [Example 24, rac-trans-1-(4-chlorophenyl)-3-(1-(cyclopropylmethyl)-4-(4-methoxyphenyl)-6-oxopiperidin-3-yl)urea]
< 1	< 1	COc1ccc([C@@H]2CC(=O)N(C)C[C@H]2NC(=O)Nc2ccc(Cl)cc2)cc1 (stereo in doubt) [Example 7, rac-trans-1-(4-chlorophenyl)-3-(4-(4-methoxyphenyl)-1-methyl-6-oxopiperidin-3-yl)urea]
